In brackets after ≈: the same amount, converted by molar mass.
Assays:
[1] = Cytotoxicity against human C8166 cells by MTT assay; type: cell-based
[2] = tested on: Human immunodeficiency virus 1; assay: Antiviral activity against HIV1 infected in human C8166 cells assessed as inhibition of viral-induced cytopathic effect; type: functional, organism-based; details: Human immunodeficiency virus 1, C8166

EC50 [2] [µg/mL]	SMILES	CC50 [1] [µg/mL]
10.3 (≈ 21.9 µM)	C=C(C)[C@@H]1CC[C@@H]2[C@]3(CC[C@]4(C)[C@@H]([C@H](C)CC/C=C(/C)C(=O)O)CC[C@@]24C)C[C@]13CCC(=O)O [NIGRANOIC ACID]	88 (≈ 187 µM)
16.2 (≈ 33.1 µM)	C/C(=C/CC[C@@H](C)[C@H]1CC[C@@]2(C)[C@@H]3CC[C@@H](C(C)(C)O)[C@@]4(CCC(=O)O)C[C@@]34CC[C@]12C)C(=O)O [LANCIFOICACID A]	105 (≈ 215 µM)
	Cc1cn([C@H]2C[C@H](N=[N+]=[N-])[C@@H](CO)O2)c(=O)[nH]c1=O [ZIDOVUDINE]	> 200
16.6 (≈ 37.3 µM)	C[C@@H]1CCC(=O)O[C@@H]2C[C@@]3(C)[C@@H]4[C@@H](O)C[C@H]5C(C)(C)C(=O)CC[C@@]56C[C@@]46C[C@@H](O)[C@]3(C)[C@@H]12 [LANCIFODILACTONE H]	> 200

Source: ChEMBL document CHEMBL1157258, “Triterpenoids from Schisandra lancifolia with anti-HIV-1 activity” (J Nat Prod, 2006)
